Each structure is given as a SMILES string. ≈ marks a conversion by molar mass, not a printed value. Calls of active or inactive are those of the source. The calls are words filed in the database; no cut-off is given here.

Test [1] has as its system Mycolicibacterium smegmatis. The experiment in a line: Antimycobacterial activity against PknGMsm-deficient Mycobacterium smegmatis by Etest method. In kind it is functional.
Test [2] has as its system Mycolicibacterium smegmatis. The experiment in a line: Antimycobacterial activity against Mycobacterium smegmatis MAR4 harboring disrupted PknGMsm gene by Etest method. In kind it is functional.
Test [3] has as its system Mycolicibacterium smegmatis. The experiment in a line: Antimycobacterial activity against Mycobacterium smegmatis harboring PknG Msm gene by Etest method. In kind it is functional.
For test [4], the system named is Mycolicibacterium smegmatis. The test is described as follows: Antimycobacterial activity against PknGMsm-deficient Mycobacterium smegmatis harboring PknG K181M mutant gene by Etest method. In kind it is functional.
Test [5] concerns Mycolicibacterium smegmatis. The experiment in a line: Antimycobacterial activity against Mycobacterium smegmatis MC2 155 by Etest method. In kind it is functional. As to conditions: str. MC2 155.
Test [6] deals with Mycolicibacterium smegmatis. The experiment in a line: Antimycobacterial activity against Mycobacterium smegmatis MC2 155 harboring PknG K181M mutant gene by Etest method. In kind it is functional. The settings on record: str. MC2 155.
Test [7] concerns Mycobacterium tuberculosis. The test is described as follows: Antimycobacterial activity against Mycobacterium tuberculosis H37Rv at 100 mg/l after 7 days by microscopy. In kind it is functional, organism-based.
The subject of test [8] is Mycobacterium tuberculosis. The experiment in a line: Antimycobacterial activity against PknGMtb-deficient Mycobacterium tuberculosis H37Rv at 100 mg/l after 7 days by microscopy. In kind it is functional, organism-based.

Regarding `CC[C@H]1OC(=O)[C@H](C)[C@@H](O[C@H]2C[C@@](C)(OC)[C@@H](O)[C@H](C)O2)[C@H](C)[C@@H](O[C@@H]2O[C@H](C)C[C@H](N(C)C)[C@H]2O)[C@](C)(O)C[C@@H](C)C(=O)[C@H](C)[C@@H](O)[C@]1(C)O` [ERYTHROMYCIN], the MIC in test [1] turned out to be 3 µg/mL (≈ 4.09 µM); in test [2], 4 µg/mL (≈ 5.45 µM); in test [3], 32 µg/mL (≈ 43.6 µM); in test [4], 3 µg/mL (≈ 4.09 µM); in test [5], 32 µg/mL (≈ 43.6 µM); in test [6], 12 µg/mL (≈ 16.4 µM). Also, in test [7], the result was inactive. Further, in test [8], the result was Active.

In the case of `CC[C@@H](CO)NCCN[C@@H](CC)CO` [ETHAMBUTOL], the MIC in test [1] stood at 0.064 µg/mL (≈ 0.313 µM); in test [2], 0.064 µg/mL (≈ 0.313 µM); in test [3] it was 0.25 µg/mL (≈ 1.22 µM); in test [5] it was 0.25 µg/mL (≈ 1.22 µM); in test [6], 0.064 µg/mL (≈ 0.313 µM).

`C[C@@H](O)[C@H]1C(=O)N2C(C(=O)O)=C(SCCNC=N)C[C@H]12` [IMIPENEM ANHYDROUS]: the MIC in test [1] came to 0.38 µg/mL (≈ 1.27 µM); in test [2], 0.38 µg/mL (≈ 1.27 µM); in test [3], 6 µg/mL (≈ 20 µM); in test [4] it was 0.38 µg/mL (≈ 1.27 µM); in test [5], 6 µg/mL (≈ 20 µM); in test [6], 1 µg/mL (≈ 3.34 µM).

Consider `CO[C@H]1/C=C/O[C@@]2(C)Oc3c(C)c(O)c4c(O)c(c(/C=N/N5CCN(C)CC5)c(O)c4c3C2=O)NC(=O)/C(C)=C\C=C\[C@H](C)[C@H](O)[C@@H](C)[C@@H](O)[C@@H](C)[C@H](OC(C)=O)[C@@H]1C` [RIFAMPIN], for which the MIC in test [1] is 4 µg/mL (≈ 4.86 µM); in test [2] it was 4 µg/mL (≈ 4.86 µM); in test [3] it was greater than 32 µg/mL; in test [5], greater than 32 µg/mL; in test [6], 4 µg/mL (≈ 4.86 µM).

With `CN[C@H](CC(C)C)C(=O)N[C@H]1C(=O)N[C@@H](CC(N)=O)C(=O)N[C@H]2C(=O)N[C@H]3C(=O)N[C@H](C(=O)N[C@H](C(=O)O)c4cc(O)cc(O)c4-c4cc3ccc4O)[C@H](O)c3ccc(c(Cl)c3)Oc3cc2cc(c3O[C@@H]2O[C@H](CO)[C@@H](O)[C@H](O)[C@H]2O[C@H]2C[C@](C)(N)[C@H](O)[C@H](C)O2)Oc2ccc(cc2Cl)[C@H]1O` [VANCOMYCIN], the MIC in test [1] amounted to 4 µg/mL (≈ 2.76 µM); in test [2], 4 µg/mL (≈ 2.76 µM); in test [3], 48 µg/mL (≈ 33.1 µM); in test [4], 4 µg/mL (≈ 2.76 µM); in test [5] it was 48 µg/mL (≈ 33.1 µM); in test [6], 16 µg/mL (≈ 11 µM).

By MIC is commonly meant the lowest concentration found to suppress growth. A higher MIC goes with weaker potency.

The values above are taken from ChEMBL document CHEMBL1649573, “Protein kinase G is required for intrinsic antibiotic resistance in mycobacteria” (2009).
